SMILES strings stand for the structures. Where two headings read alike, the source gives them in different places.

Format in all cases: cell-based
Experiment [1] addresses T1, α1β2γ2 GABAA receptor (β2 subunit) (Rattus norvegicus, UniProt P63138).
T1 construct: gene Gabrb2; recombinant α1β2γ2 receptor expressed in Xenopus laevis oocytes; with GABAA α1 (Gabra1) and γ2 (Gabrg2) subunits
Description: two-electrode voltage clamp, % IGABA at […] compound, GABA EC0.[…].

The target of experiment [2] is T1, α1β2γ2 GABAA receptor (β2 subunit). As to the kind of experiment: two-electrode voltage clamp, potentiation of IGABA at GABA EC10-20.
In experiment [3] the target is T2, α1β1γ2 GABAA receptor (β1 subunit) (Rattus norvegicus, UniProt P15431).
T2 construct: gene Gabrb1; recombinant α1β1γ2 receptor expressed in Xenopus laevis oocytes; with GABAA α1 (Gabra1) and γ2 (Gabrg2) subunits
The description is as above.

T1 sequence (P63138 26-474): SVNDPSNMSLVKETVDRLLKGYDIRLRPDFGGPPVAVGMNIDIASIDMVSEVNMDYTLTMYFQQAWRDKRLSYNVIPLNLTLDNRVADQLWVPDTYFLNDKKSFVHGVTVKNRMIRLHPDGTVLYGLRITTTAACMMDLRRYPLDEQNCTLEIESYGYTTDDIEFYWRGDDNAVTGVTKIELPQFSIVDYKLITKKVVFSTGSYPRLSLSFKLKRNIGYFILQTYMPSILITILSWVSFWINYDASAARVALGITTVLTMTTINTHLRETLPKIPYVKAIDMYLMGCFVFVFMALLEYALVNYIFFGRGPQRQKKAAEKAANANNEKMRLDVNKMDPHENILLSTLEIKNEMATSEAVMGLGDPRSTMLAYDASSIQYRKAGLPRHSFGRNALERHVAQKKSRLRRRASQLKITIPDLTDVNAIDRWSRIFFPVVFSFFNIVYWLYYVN
T1 sequence (P62813 28-455 partner): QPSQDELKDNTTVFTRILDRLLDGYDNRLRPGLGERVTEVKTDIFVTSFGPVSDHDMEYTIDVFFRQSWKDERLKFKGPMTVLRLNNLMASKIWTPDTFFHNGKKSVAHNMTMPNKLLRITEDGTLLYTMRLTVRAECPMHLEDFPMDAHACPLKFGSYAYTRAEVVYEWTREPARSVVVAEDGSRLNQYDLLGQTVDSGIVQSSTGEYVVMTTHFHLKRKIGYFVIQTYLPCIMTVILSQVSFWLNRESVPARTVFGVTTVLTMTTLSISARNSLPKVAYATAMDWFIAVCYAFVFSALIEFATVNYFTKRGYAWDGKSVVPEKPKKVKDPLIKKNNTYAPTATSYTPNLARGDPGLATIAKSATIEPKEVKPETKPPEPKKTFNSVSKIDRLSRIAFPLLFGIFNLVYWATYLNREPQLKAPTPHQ
T1 sequence (P18508 39-466 partner): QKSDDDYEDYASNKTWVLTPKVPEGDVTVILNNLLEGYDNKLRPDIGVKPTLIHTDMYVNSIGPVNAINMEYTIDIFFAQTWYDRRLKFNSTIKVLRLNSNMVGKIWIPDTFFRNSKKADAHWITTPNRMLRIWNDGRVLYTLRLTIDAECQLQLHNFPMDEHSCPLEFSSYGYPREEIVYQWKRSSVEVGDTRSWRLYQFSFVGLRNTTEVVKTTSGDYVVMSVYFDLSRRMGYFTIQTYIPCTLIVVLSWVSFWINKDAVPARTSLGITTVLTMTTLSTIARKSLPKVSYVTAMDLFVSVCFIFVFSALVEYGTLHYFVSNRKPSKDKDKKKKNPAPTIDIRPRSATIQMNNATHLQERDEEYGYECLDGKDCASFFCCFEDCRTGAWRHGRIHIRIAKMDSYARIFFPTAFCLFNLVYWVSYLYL
T2 sequence (P15431 26-474): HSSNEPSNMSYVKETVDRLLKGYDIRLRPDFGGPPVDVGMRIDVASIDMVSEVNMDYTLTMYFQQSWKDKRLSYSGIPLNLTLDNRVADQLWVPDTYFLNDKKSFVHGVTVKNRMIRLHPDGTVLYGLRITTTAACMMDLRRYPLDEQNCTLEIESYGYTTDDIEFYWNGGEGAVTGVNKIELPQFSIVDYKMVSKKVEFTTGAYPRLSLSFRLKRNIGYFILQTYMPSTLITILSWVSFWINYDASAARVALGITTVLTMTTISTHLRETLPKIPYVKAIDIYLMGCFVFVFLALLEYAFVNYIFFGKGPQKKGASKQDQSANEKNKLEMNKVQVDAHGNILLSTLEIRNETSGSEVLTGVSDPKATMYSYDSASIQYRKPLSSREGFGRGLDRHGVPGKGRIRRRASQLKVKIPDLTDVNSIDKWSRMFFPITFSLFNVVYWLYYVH
T2 sequence (P62813 28-455 partner): as the sequence (P62813 28-455 partner) above
T2 sequence (P18508 39-466 partner): as the sequence (P18508 39-466 partner) above

In the case of `C=CCc1ccc(O)c(-c2ccccc2C)c1` [8b], the activation at 3 µM in experiment [1] stood at 207 ± 33%.

Regarding `C=CCc1ccc(O)c(-c2cccc(OC)c2)c1` [8f], the activation at 3 µM in experiment [1] was determined as 136 ± 32%.

Turning to `C=CCc1ccc(O)c(-c2ccc(OC)cc2)c1` [8g], the EC50 in experiment [2] (read-out: EC50) was ~7 µM; in experiment [3] (read-out: EC50), 30 µM.

In experiment [1], `C=CCc1ccc(O)c(-c2cccc(C(=O)OC)c2)c1` [8i] displayed an activation at 3 µM of 406 ± 70%.

`C=CCc1ccc(O)c(-c2cc(CC=C)ccc2O)c1` [compound 1, magnolol]: the activation at 3 µM in experiment [1] was found to be 338 ± 93%.

For the compound `C=CCc1ccc(O)c(-c2ccc(O)c(CC=C)c2)c1` [compound 2, honokiol], the 50% effective concentration (EC50) in experiment [2] and in experiment [3] was 20 µM in each case.
